Measurements taken from US10160763B2, “WDR5 inhibitors and modulators” (Vanderbilt University, priority 2016, dated 2018).

Biological target: WDR5 (Δ23, residues 24-334) (Homo sapiens, UniProt P61964)
Test: biochemical
Settings: Kd (M), FPA-based binding affinity at the WDR5 WIN site; IC50 converted to Kd by modified Cheng-Prusoff equation; average of two experiments

Kd | Compound
1.1e-08 M | CC(c1cccc(-c2cn3c(n2)CCC3)c1)N(CC1CC1)C(=O)Cc1ccc(Cl)c(Cl)c1 (centres unmarked) [B190]
3.1e-07 M | CCC(=O)N1CCCC(C(=O)NC(C)c2cc(-c3cn4c(n3)CCC4)ccc2OC2CCC2)C1 (centres unmarked) [B210]
2.64e-07 M | O=C(Cc1c[nH]c2ccccc12)NCc1cccc(-c2cn3c(n2)CCC3)c1 [B122]
1.18e-07 M | COc1cccc(C(=O)N(Cc2cccc(-c3cn4c(n3)CCC4)c2)C(C2CC2)C2CC2)c1 [B81]
4.99e-06 M | O=C(CCc1cccc(Cl)c1)NCc1cccc(-c2cn3c(n2)CCC3)c1 [B158]
4.59e-06 M | O=C(Cc1cc(C(F)(F)F)cc(C(F)(F)F)c1)NCc1cccc(-c2cn3c(n2)CCC3)c1 [B134]
2.95e-07 M | COc1cccc(C(=O)N(Cc2cccc(-c3cn4c(n3)CCC4)c2)CC2CCCC2)c1 [B41]
7.41e-07 M | CC(=O)NCc1cccc(C(=O)NCc2cccc(-c3cn4c(n3)CCC4)c2)c1 [B189]
1.33e-07 M | O=C(Cc1ccc(Br)cc1)NCc1cccc(-c2cn3c(n2)CCC3)c1 [B106]
5.6e-08 M | O=C(CC12C[C@H]3C[C@@H](C1)C[C@@H](C2)C3)NCc1cccc(-c2cn3c(n2)CCC3)c1 [B107]
1.6e-08 M | COc1cc(C(=O)NC(C)c2cc(-c3cn4c(n3)CCC4)ccc2OC2CCC2)ccc1C (centres unmarked) [B207]
1e-09 M | CCOc1cccc(C(=O)N(C)Cc2cccc(-c3cn4c(n3)CCC4)c2)c1 [B110]
4.25e-07 M | CCC(C)N(Cc1cccc(-c2cn3c(n2)CCC3)c1)C(=O)c1cccc(OC)c1 (centres unmarked) [B86]
4.91e-07 M | CCOc1cccc(C(=O)N(Cc2cccc(-c3cn4c(n3)CCC4)c2)CC2CC2)c1 [B79]
3.83e-06 M | O=C(NCc1cccc(-c2cn3c(n2)CCC3)c1)Nc1ccccc1 [B22]
9.72e-07 M | Cc1ccc(C(=O)NCc2cccc(-c3cn4c(n3)CCC4)c2)cc1C(F)(F)F [B130]
3e-09 M | CS(=O)(=O)N1CCCC(C(=O)NCc2cccc(-c3cn4c(n3)CCC4)c2)C1 (centres unmarked) [B186]
1.34e-06 M | CS(=O)(=O)NCc1cccc(C(=O)NCc2cccc(-c3cn4c(n3)CCC4)c2)c1 [B183]

Kd | Compound
4.19e-06 M | O=C(NCc1cccc(-c2cn3c(n2)CCC3)c1)C1CCNCC1 [B27]
1.48e-07 M | CCOc1cccc(C(=O)NCc2cccc(-c3cn4c(n3)CCC4)c2)c1 [B78]
3.62e-06 M | COc1cc(C(=O)N(Cc2cc(-c3cn4c(n3)CCC4)ccc2N2CCCC2)CC2CC2)ccc1C [B179]
7.24e-07 M | COc1cccc(C(=O)N(Cc2cc(C)cc(-c3cn4c(n3)CCC4)c2)CC2CC2)c1 [B28]
6.45e-07 M | C[C@H](C(=O)N(Cc1cccc(-c2cn3c(n2)CCC3)c1)CC1CC1)c1ccccc1 [B61]
1.1e-08 M | CCC(=O)N1CCCC(C(=O)NC(C)c2cccc(-c3cn4c(n3)CCC4)c2)C1 (centres unmarked) [B211]
3.32e-06 M | CC1CN(c2ccc(-c3cn4c(n3)CCC4)cc2CNC(=O)Cc2ccc(Cl)c(Cl)c2)CC(C)O1 (centres unmarked) [B165]
6.3e-08 M | CC(=O)N1CCCC(C(=O)N(Cc2cc(-c3cn4c(n3)CCC4)ccc2N2CCOCC2)CC2CC2)C1 (centres unmarked) [B176]
2.85e-07 M | O=C(Cc1cc(Cl)cc(Cl)c1)N(Cc1cccc(-c2cn3c(n2)CCC3)c1)CC1CC1 [B60, N-(Cyclopropylmethyl)-2-(3,5-dichlorophenyl)-N-(3-(6,7-dihydro-5H-pyrrolo[1,2-a]imidazol-2-yl)benzyl)acetamide]
1e-08 M | CC(=O)N1CC(CC(=O)NCc2cccc(-c3cn4c(n3)CCC4)c2)C1 [B141]
8.75e-07 M | O=C(Cc1cccc(Cl)c1Cl)NCc1cccc(-c2cn3c(n2)CCC3)c1 [B149]
7.6e-08 M | O=C(Cc1ccc(Cl)c(Cl)c1)NCc1cc(-c2cn3c(n2)CCC3)ccc1N1CCCC1 [B118]
4.35e-07 M | CC(C(=O)NCc1cccc(-c2cn3c(n2)CCC3)c1)c1ccccc1 (centres unmarked) [B84]
2.71e-05 M | O=C(C1CCCNC1)N(Cc1cccc(-c2cn3c(n2)CCC3)c1)CC1CC1 (centres unmarked) [B48]
1.7e-08 M | CCC(NC(=O)c1ccc(C)c(OC)c1)c1cccc(-c2cn3c(n2)CCC3)c1 (centres unmarked) [B215]
1.19e-06 M | O=C(/C=C/c1ccccc1)NCc1cccc(-c2cn3c(n2)CCC3)c1 [B12]
8.9e-07 M | COc1cccc(CC(=O)NCc2cccc(-c3cn4c(n3)CCC4)c2)c1 [B88]
